The target in one test is T1, aldosterone synthase (Homo sapiens, UniProt P19099).
T1 construct: host or cells: NCI-H295R
T1 sequence (P19099 25-503): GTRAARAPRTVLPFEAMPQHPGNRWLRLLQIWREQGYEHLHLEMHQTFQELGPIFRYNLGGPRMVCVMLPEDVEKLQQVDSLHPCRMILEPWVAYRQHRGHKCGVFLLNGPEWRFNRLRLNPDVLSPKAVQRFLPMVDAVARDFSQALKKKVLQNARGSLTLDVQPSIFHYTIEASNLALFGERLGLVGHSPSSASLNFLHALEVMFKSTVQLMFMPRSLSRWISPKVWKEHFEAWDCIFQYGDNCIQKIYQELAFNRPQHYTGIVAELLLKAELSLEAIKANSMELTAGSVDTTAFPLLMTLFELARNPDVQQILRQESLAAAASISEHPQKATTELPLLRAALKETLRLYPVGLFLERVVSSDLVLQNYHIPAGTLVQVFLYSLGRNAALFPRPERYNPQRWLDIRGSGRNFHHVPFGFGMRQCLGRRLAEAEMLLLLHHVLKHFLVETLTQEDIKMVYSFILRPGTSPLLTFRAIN
Description: Aldosterone cell secretion in NCI-H295R cells (aldosterone synthase inhibition, SPA). Format: cell-based. The settings on record: human adrenocortical carcinoma NCI-H295R cells, 1 μM Ang II, 24 hr. The source says:
In particular, the aldosterone synthase inhibitory activities in vitro can be determined by the following assay.
Human adrenocortical carcinoma NCI-H295R cell line was obtained from American Type Culture Collection (Manassas, Va.). Insulin/transferrin/selenium (ITS)-A supplement (100×). DMEM/F-12, antibiotic/antimycotic (100×), and fetal bovine serum (FBS) were purchased from Invitrogen (Carlsbad, Calif.). Anti-mouse PVT scintillation proximity assay (SPA) beads and NBS 96-well plates were obtained from GE Health Sciences (Piscataway, N.J.) and Corning (Acton, Mass.), respectively. Solid black 96-well flat bottom plates were purchased from Costar (Corning, N.Y.). Aldosterone and angiotensin (Ang II) were purchased from Sigma (St. Louis, Mo.). D-[1,2,6,7-^3H(N)]aldosterone was acquired from PerkinElmer (Boston, Mass.). Nu-serum was a product of BD Biosciences (Franklin Lakes, N.J.). The NADPH regenerating system, dibenzylfluorescein (DBF), and human aromatase Supersomes® were obtained from Gentest (Woburn, Mass.).
For in vitro measurement of aldosterone activity, human adrenocortical carcinoma NCI-H295R cells are seeded in NBS 96-well plates at a density of 25,000 cells/well in 100 μl of a growth medium containing DMEM/F12 supplemented with 10% FCS, 2.5% Nu-serum, 1 μg ITS/ml, and 1× antibiotic/antimycotic. The medium is changed after culturing for 3 days at 37° C. under an atmosphere of 5% CO2/95% air. On the following day, cells are rinsed with 100 μl of phosphate-buffered saline (PBS) and incubated with 100 μl of treatment medium containing 1 μM Ang II and a compound at different concentrations in quadruplicate wells at 37° C. for 24 hr. At the end of incubation, 50 μl of medium is withdrawn from each well for measurement of aldosterone production by an SPA using mouse anti-aldosterone monoclonal antibodies.
Measurement of aldosterone activity can also be performed using a 96-well plate format. Each test sample is incubated with 0.02 μCi of D-[1,2,6,7-^3H(N)]aldosterone and 0.3 μg of anti-aldosterone antibody in PBS containing 0.1% Triton X-100, 0.1% bovine serum albumin, and 12% glycerol in a total volume of 200 μl at room temperature for 1 hr. Anti-mouse PVT SPA beads (50 μl) are then added to each well and incubated overnight at room temperature prior to counting in a Microbeta plate counter. The amount of aldosterone in each sample is calculated by comparing with a standard curve generated using known quantities of the hormone.
(§1) Inhibition of the release of certain steroids can be used as a measure of the respective enzyme inhibition by the added test compounds. The dose-dependent inhibition of enzymic activity by a compound is calculated by means of an inhibition plot which is characterized by an IC50.
The IC50 values for active test compounds are ascertained by a simple linear regression analysis in order to construct inhibition plots without data weighting. The inhibition plot is calculated by fitting a 4-parameter logistic function to the raw data points using the least squares method. The equation of the 4-parameter logistic function is calculated as follows: Y=(d−a)/((1+(x/c)b))+a, where: a=minimum data level, b=gradient, I […], d=maximum data level, x=inhibitor concentration.
The inhibition activity of aldosterone production can also be expressed in percentage inhibition (% inhibition) at a given concentration (e.g. % inhibition at 1 μM), which is the aldosterone level when the cell is treated with the given concentration of a compound of this invention (e.g. concentration of 1 μM) versus the aldosterone excretion when cell is free of the compound of the invention: % inhibition aldosterone production=[(Y−X)/Y]×100 wherein X is the level of aldosterone when the cell is treated with a compound of Formula I; and Y is the level of aldosterone when the cell is free of compound of Formula I.

Another test deals with T2, CYP11B1 (Homo sapiens, UniProt P15538).
T2 construct: the NCI-H295R cells have Cyp11 B1 (steroid 11 β-hydroxylase); host or cells: NCI-H295R
T2 sequence (P15538 25-503): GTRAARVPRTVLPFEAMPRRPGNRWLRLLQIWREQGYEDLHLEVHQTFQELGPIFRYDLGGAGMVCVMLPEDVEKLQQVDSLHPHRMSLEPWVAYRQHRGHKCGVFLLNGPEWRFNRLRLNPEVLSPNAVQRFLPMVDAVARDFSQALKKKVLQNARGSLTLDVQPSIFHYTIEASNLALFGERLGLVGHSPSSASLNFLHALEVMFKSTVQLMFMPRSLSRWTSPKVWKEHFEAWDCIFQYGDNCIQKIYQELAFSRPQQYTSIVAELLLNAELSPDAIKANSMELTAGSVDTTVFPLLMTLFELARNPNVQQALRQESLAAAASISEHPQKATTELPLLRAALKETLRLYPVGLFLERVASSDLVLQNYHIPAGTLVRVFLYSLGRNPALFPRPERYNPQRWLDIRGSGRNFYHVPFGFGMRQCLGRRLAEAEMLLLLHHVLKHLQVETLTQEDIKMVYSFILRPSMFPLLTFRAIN
Description: Cortisol cell secretion in NCI-H295R cells (CYP11B1 activity). It counts as cell-based. The settings on record: compound at 1 μM; for inhibition at 1 µM: NCI-H295R, read-out: Cortisol cell secretion (% Inhib. @ 1 μM).
Description: The in vitro inhibitory activities for CYP1B1 can be determined by the following assay.
The cell line NCI-H295R was originally isolated from an adrenocortical carcinoma and has been characterized in the literature through the stimulable secretion of steroid hormones and the presence of the enzymes essential for steroidogenesis. Thus, the NCI-H295R cells have Cyp11 B1 (steroid 11 β-hydroxylase). The cells show the physiological property of zonally undifferentiated human foetal adrenocortical cells which, however, have the capacity to produce the steroid hormones which are formed in the three, phenotypically distinguishable zones in the adult adrenal cortex.
The NCI-H295R cells (American Type Culture Collection, ATCC, Rockville, Md., USA) are grown in Dulbeoco's Modified Eagle'Ham F-12 Medium (DME/F12), which has been supplemented with Ulroser SF Serum (Soprachem, Geigy-Saint-Christophe, France), insulin, transferrin, selenite (I-T-S, Becton Dickinson Biosiences, Franklin lakes. NJ, USA) and antibiotics in 75 cm^2 cell culture vessels at 37° C. and in a 95% air-5% carbon dioxide atmosphere. The cells are subsequently transferred for colony formation into a 24-well incubation vessel. They are cultivated there in DME/F12 medium, which is now supplemented with 0.1% bovine serum instead of Ultroser SF for 24 hours. The experiment is initiated by cultivating the cells in DME/F12 medium which is supplemented with 0.1% bovine serum albumin and test compound, in the presence or absence of cell stimulants, for 72 hours. The test substance is added in a concentration range from 0.2 nanomolar to […]. Cell stimulants which can be used are angiotensin II (1 D or 100 nanomolar), potassium ions (16 millimolar), forskolin (10 micromolar) or a combination of two stimulants.
The excretion of aldosterone, cortisol, corticosterone and estradiol/estrone into the culture medium can be detected and quantified by commercially available, specific monoclonal antibodies in radioimmunoassays in accordance with the manufacturer's instructions.
as §1
The inhibition activity of cortisol production (CYP11B1 activity) can also be expressed in percentage inhibition (% inhibition) at a given concentration (e.g. % inhibition at 1 μM), which is the cortisol level when cell is treated with the given concentration of a compound of the invention (e.g. concentration of 1 μM) versus the cortisol excretion when cell is free of the compound of the invention. % inhibition cortisol production=[(Y′−X′)/Y′]×100 wherein X′ is the level of cortisol when the cell is treated with a compound of Formula I; and Y′ is the level of cortisol when the cell is free of compound of Formula I.

Usually IC50 stands for the concentration needed to halve the response being measured. Read a low IC50 as higher potency. Turning to `Cn1c(=O)oc2ccc(-c3cncc(F)c3CO)cc21` [Example 36, 5-(5-fluoro-4-(hydroxymethyl)pyridin-3-yl)-3-methylbenzo[d]oxazol-2(3H)-one], on aldosterone synthase, the midpoint of inhibition, the IC50, lay at 144 nM. The inhibition at 1 µM on CYP11B1 stood at 13%.
The matching figures for `Cn1c(=O)oc2cc(F)c(-c3cncc(CO)c3)cc21` [Example 11]: 128 nM and 39%.
In turn, `Cn1c(=O)oc2ccc(-c3cncc(C(O)C4CC4)c3)cc21` (single isomer, unassigned) [Example 13 Enantiomer 1, 5-(5-(cyclopropyl(hydroxy)methyl)pyridin-3-yl)-3-methylbenzo[d]oxazol-2(3H)-one] yielded an IC50 against aldosterone synthase of 28 nM. Also, on CYP11B1, the inhibition at 1 µM turned out to be 64%.
The matching figures for `CCN(Cc1ccccc1)Cc1cncc(-c2ccc3oc(=O)n(C)c3c2)c1` [Example 10, 5-{5-[(Benzyl-ethyl-amino)-methyl]-pyridin-3-yl}-3-methyl-3H-benzooxazol-2-one]: 17 nM and 96%.
`CC(O)c1ccncc1-c1ccc2oc(=O)n(C)c2c1` (single isomer, unassigned) [Example 7 Enantiomer 1, 5-(4-(1-hydroxyethyl)pyridin-3-yl)-3-methylbenzo[d]oxazol-2(3H)-one] came in with an IC50 on aldosterone synthase of 437 nM.
At aldosterone synthase, `Cn1c(=O)oc2ccc(-c3cncc(CCO)c3)cc21` [Example 18, 5-(5-(2-hydroxyethyl)pyridin-3-yl)-3-methylbenzo[d]oxazol-2(3H)-one] yielded an IC50 of 34 nM. Besides, the inhibition at 1 µM at CYP11B1 was 57%.
`Cn1c(=O)oc2ccc(-c3cncc(C(O)C(F)(F)F)c3)cc21` (stereo not shown) [Example 19, 3-methyl-5-(5-(2,2,2-trifluoro-1-hydroxyethyl)pyridin-3-yl)benzo[d]oxazol-2(3H)-one]: half-maximal inhibition at aldosterone synthase (IC50) required 1.4 nM. Also, the inhibition at 1 µM at CYP11B1 came out at 95%.
With `Cn1c(=O)oc2ccc(-c3cncc(C(C)(C)O)c3)cc21` [Example 14, 5-(5-(2-hydroxypropan-2-yl)pyridin-3-yl)-3-methylbenzo[d]oxazol-2(3H)-one], the IC50 at aldosterone synthase came to 3 nM. Besides, the inhibition at 1 µM on CYP11B1 was determined as 89%.
On aldosterone synthase, `Cn1c(=O)oc2ccc(-c3cncc(C(O)C4CC4)c3)cc21` (single isomer, unassigned) [Example 13 Enantiomer 2, 5-(5-(cyclopropyl(hydroxy)methyl)pyridin-3-yl)-3-methylbenzo[d]oxazol-2(3H)-one] came in with an IC50 of 30 nM. The “Cortisol cell secretion (% Inhib. @ 1 μM)” value on CYP11B1 amounted to 64%.
At aldosterone synthase, `Cc1ccncc1-c1ccc2oc(=O)n(C)c2c1` [Example 2, 3-Methyl-5-(4-methyl-pyridin-3-yl)-3H-benzooxazol-2-one] had an IC50 of 4 nM. Further, at CYP11B1, the inhibition at 1 µM came out at 82%.
As to `Cn1c(=O)oc2ccc(-c3cccnc3)cc21` [Example 1, 3-Methyl-5-pyridin-3-yl-3H-benzooxazol-2-one], the IC50 at aldosterone synthase turned out to be 17.8 nM. For the same molecule, the inhibition at 1 µM on CYP11B1 stood at 58%.
The like results for `CN(c1cncc(-c2ccc3oc(=O)n(C)c3c2)c1)S(=O)(=O)C1CC1` [Example 21, N-methyl-N-(5-(3-methyl-2-oxo-2,3-dihydrobenzo[d]oxazol-5-yl)pyridin-3-yl)cyclopropanesulfonamide] were, in that order, 68 nM and 65.5%.
As to `Cn1c(=O)oc2ccc(-c3cnccc3C(O)c3ccc(F)cc3)cc21` (single isomer, unassigned) [Example 8 Enantiomer 2, 5-(4-((4-fluorophenyl)(hydroxy)methyl)pyridin-3-yl)-3-methylbenzo[d]oxazol-2(3H)-one], half-maximal inhibition against aldosterone synthase (IC50) was put at 66 nM. At CYP11B1 (1 µM), the “Cortisol cell secretion (% Inhib. @ 1 μM)” value worked out at 73%.
`COc1cncc(-c2ccc3oc(=O)n(C)c3c2)c1` [Example 4, 5-(5-methoxypyridin-3-yl)-3-methylbenzo[d]oxazol-2(3H)-one] yielded an IC50 on aldosterone synthase of 18 nM. Further, the inhibition at 1 µM on CYP11B1 was 77%.
`CC(O)c1ccncc1-c1ccc2oc(=O)n(C)c2c1` (single isomer, unassigned) [Example 7 Enantiomer 2, 5-(4-(1-hydroxyethyl)pyridin-3-yl)-3-methylbenzo[d]oxazol-2(3H)-one] gave an IC50 against aldosterone synthase of 452 nM. This lies in the sub-micromolar range.

The record behind these values is patent publication US8455522B2, “Benzoxazolone derivatives as aldosterone synthase inhibitors” (Novartis AG, priority 2009, dated 2013).
